# Test results reported in ChEMBL document CHEMBL1201862, “PubChem BioAssay data set” (2004).
# The source made the active and inactive calls. Cut-off read from the data, not from the text of the source, for most assays here: actives have a measured EC50 and inactives only a lower limit.
# Legend:
# [1] = target: T1, Heat shock factor protein 1 (Mus musculus, UniProt P38532); assay: enhancement of HSF1-driven luciferase signal – cell-based, NIH3T3, luminescence, dose retest, confirmation (AID 435004); type: functional;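 note: stress induced by proteasome inhibitor MG132 added 30 min after compound; luciferase reporter driven by HSF1 response element in NIH3T3 cells; actives raise luminescence as potentiators of the MG132 stress response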
# T1 sequence (P38532 whole entry): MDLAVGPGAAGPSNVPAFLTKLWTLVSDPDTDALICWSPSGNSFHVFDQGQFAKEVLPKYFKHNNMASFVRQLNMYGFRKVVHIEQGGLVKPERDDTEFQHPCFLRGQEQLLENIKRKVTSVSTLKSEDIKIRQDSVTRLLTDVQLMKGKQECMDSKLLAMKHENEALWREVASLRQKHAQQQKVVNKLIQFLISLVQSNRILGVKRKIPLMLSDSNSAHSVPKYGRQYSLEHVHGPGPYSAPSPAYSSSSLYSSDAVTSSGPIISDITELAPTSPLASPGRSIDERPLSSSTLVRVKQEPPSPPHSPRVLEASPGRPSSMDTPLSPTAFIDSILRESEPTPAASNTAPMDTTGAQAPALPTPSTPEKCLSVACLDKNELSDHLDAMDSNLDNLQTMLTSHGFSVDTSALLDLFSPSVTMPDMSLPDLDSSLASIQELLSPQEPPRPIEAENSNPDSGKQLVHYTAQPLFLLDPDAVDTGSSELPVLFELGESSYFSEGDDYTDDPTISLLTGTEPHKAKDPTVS
# [2] = Luminescence Cell-Based Dose Confirmation HTS to Identify Activators of 5'UTR Stem-Loop Driven Alpha-Synuclein mRNA Translation in H4 Neuroglioblastoma Cells. [Related pubchem assays: 1829 (Project Summary), 1814 (Primary HTS)]; type: functional
# [3] = Luminescence Cell-Based Dose Response HTS to Identify Activators of Luciferase Translation or Activity in H4 […] Cells. [Related pubchem assays: 1829 (Project Summary), 1814 (Primary HTS)]; type: functional
# H4 = assay: Luminescence Cell-Based Dose Response HTS to Identify Activators of 5'UTR Stem-Loop Driven Prion Protein mRNA Translation in H4 Neuroglioblastoma Cells. [Related pubchem assays: 1829 (Project Summary), 1814 (Primary HTS)]; type: functional; details: Homo sapiens
# [4] = target: T2, Corticotropin-releasing factor receptor 2/Corticotropin-releasing factor-binding protein (Homo sapiens, UniProt P24387+Q13324); assay: Dose Response confirmation of uHTS hits for small molecule antagonists of the CRF-binding protein and CRF-R2 receptor complex.; type: functional; details: read-out: IC50_Mean
# T2 sequence (Q13324 whole entry): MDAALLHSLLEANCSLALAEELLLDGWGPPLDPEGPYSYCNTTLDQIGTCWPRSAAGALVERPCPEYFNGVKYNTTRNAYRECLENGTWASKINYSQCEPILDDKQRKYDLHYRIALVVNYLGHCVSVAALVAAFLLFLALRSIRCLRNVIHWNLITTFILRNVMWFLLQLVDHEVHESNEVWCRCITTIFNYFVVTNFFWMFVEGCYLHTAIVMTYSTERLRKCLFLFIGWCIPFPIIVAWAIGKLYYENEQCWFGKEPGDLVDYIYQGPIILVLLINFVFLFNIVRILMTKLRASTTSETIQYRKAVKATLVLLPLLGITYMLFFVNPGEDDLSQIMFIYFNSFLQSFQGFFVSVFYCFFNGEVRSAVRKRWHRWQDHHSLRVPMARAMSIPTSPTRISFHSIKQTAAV
# T2 sequence (P24387 whole entry): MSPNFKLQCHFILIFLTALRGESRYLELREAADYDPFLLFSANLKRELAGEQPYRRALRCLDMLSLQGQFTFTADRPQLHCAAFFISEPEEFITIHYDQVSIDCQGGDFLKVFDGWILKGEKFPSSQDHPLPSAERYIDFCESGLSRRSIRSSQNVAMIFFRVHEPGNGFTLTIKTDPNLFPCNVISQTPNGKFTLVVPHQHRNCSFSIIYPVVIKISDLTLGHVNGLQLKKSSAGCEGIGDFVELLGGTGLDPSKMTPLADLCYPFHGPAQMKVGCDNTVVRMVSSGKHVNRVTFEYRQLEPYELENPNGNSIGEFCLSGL
# [5] = target: T2, Corticotropin-releasing factor receptor 2/Corticotropin-releasing factor-binding protein; assay: activators of CRF receptor 2 with binding protein – uHTS hits, confirmation (AID 602473); type: functional; details: read-out: EC50_Mean
# Cytochrome P450 2D6 = Cytochrome P450 2D6 (Homo sapiens, UniProt P10635);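 note: CYP2D6 member of a cytochrome P450 panel assay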
# Chain of Cytochrome P450 2D6 (P10635 whole entry): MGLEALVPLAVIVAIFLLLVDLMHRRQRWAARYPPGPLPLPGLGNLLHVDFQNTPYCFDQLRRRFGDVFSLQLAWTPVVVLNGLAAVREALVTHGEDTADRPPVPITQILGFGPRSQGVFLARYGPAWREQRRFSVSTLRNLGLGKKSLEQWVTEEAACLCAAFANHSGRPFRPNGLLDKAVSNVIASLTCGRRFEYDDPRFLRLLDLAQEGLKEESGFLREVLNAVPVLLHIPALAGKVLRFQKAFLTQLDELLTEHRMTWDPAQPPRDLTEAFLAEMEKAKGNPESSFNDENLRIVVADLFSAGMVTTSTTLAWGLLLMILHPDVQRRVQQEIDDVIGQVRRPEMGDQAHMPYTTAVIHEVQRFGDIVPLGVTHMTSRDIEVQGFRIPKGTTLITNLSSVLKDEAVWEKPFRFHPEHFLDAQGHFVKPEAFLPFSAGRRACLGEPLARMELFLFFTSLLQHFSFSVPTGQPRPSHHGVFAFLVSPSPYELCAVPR
# Cytochrome P450 3A4 = Cytochrome P450 3A4 (Homo sapiens, UniProt P08684);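 note: CYP3A4 tested as one member of a cytochrome P450 panel screen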
# Chain of Cytochrome P450 3A4 (P08684 whole entry): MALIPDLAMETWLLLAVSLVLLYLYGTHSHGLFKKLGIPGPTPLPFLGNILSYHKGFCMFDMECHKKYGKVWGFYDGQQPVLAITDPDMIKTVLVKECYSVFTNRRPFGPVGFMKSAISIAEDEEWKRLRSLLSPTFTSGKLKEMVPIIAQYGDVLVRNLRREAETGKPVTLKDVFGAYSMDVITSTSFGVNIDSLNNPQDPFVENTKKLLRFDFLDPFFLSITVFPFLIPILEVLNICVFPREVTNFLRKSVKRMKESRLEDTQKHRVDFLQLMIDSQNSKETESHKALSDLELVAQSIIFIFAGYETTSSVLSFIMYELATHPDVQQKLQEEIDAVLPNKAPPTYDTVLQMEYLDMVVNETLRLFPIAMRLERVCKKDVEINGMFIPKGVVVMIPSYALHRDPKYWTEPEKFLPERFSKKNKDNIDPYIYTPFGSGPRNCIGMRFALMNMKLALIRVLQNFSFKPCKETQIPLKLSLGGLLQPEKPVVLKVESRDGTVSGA
# Cytochrome P450 2C9 = Cytochrome P450 2C9 (Homo sapiens, UniProt P11712)
# Chain of Cytochrome P450 2C9 (P11712 whole entry): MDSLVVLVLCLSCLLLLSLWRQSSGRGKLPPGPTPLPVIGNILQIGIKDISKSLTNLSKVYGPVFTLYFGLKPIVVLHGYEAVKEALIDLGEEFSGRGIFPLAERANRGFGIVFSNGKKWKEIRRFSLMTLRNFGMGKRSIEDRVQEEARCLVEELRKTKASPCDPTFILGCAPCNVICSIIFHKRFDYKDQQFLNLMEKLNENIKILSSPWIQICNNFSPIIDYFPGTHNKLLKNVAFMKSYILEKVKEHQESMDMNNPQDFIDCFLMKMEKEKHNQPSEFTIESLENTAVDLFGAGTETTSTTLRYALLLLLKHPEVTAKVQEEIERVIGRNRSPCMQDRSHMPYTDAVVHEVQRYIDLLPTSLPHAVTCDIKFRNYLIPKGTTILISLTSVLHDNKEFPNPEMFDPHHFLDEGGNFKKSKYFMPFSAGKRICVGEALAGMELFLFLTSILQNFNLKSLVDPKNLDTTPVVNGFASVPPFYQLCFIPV
# [6] = target: Luciferin 4-monooxygenase (Photinus pyralis, UniProt P08659); assay: inhibition of purified Photinus pyralis luciferase – biochemical, luminescence, dose response (AID 1891)
# Chain of Luciferin 4-monooxygenase (P08659 whole entry): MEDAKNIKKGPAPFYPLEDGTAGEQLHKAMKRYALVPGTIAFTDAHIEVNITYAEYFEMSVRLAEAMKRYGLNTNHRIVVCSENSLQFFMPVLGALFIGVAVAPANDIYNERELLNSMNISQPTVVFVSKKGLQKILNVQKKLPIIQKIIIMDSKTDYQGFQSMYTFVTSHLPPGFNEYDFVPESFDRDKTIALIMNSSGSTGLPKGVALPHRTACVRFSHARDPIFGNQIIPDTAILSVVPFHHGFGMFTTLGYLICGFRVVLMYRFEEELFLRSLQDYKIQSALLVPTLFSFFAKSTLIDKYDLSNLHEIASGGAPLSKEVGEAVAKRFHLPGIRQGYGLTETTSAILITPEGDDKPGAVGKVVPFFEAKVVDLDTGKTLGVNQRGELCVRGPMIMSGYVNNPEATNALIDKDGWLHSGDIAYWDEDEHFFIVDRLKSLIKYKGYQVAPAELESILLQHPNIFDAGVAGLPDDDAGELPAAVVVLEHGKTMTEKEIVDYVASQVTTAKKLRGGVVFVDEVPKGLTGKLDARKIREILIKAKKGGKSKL
# [7] = Luminescence Cell-Based Dose Confirmation HTS to Identify Inhibitors of Platelet Dense Granule Release. [Related pubchem assays: 1663 (Primary HTS), 1678 (Summary of Project)]; type: functional
# [8] = target: T3, RNA-binding protein pos-1 (Caenorhabditis elegans, UniProt G5EF15); assay: disruptors of C. elegans POS-1 RNA interaction – biochemical, fluorescence polarization, dose response (AID 1964);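 note: purified POS-1 fused to maltose binding protein made in E. coli; potency of compounds blocking POS-1 binding to fluorescent RNA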
# T3 sequence (G5EF15 whole entry): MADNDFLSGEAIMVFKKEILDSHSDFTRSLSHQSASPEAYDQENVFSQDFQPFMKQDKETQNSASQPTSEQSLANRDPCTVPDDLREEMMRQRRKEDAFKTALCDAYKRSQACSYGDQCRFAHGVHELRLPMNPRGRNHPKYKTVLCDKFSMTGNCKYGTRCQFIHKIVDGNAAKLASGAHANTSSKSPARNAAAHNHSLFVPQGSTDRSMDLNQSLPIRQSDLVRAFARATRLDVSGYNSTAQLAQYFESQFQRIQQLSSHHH
smiles,measurement,setting,value
COc1cccc(OCc2ccc(Cl)cc2)c1C#N,EC50,[1],> 260 µM (inactive)
CC(C)(C)c1ccc(C(=O)NCC(=O)OCC(=O)Nc2nc(-c3ccc(F)cc3)cs2)cc1,EC50,[2],19.9 µM (active)
same,EC50,[3],> 120 µM (not active)
same,EC50,H4,13.5 µM (active)
COc1ccc(-c2nn(-c3ccccc3)cc2/C=C(\C#N)S(=O)(=O)c2ccccc2)cc1OC,IC50,[4],> 47.1 µM (inactive)
same,EC50,[5],> 53 µM (inactive)
CC1=CC(C)(C)N=C(S)N1c1cccc(C)c1,EC50,[1],> 260 µM (inactive)
same,AC50,Cytochrome P450 2D6,6.31 µM (inconclusive)
same,AC50,Cytochrome P450 3A4,25.1 µM (inconclusive)
same,AC50,Cytochrome P450 2C9,3.55 µM (inconclusive)
CC(C)(C)n1ncc2c(=O)n(CC(=O)c3ccc(Cl)cc3)cnc21,EC50,[2],0.168 µM (active)
same,EC50,[3],0.115 µM (active)
COc1cccc2oc3cc(C#Cc4ccccn4)ccc3c(=O)c12,EC50,[6],23.1 µM (active)
same,EC50,[7],> 112 µM (not active)
Cc1cc(C)cc(N2C(=O)NC(=O)/C(=C\c3cccn3-c3ccc(Cl)cc3)C2=O)c1,EC50,[8],84.5 µM (active)
CC(c1nccs1)N(C)C(=O)c1cn(Cc2cccc3ccccc23)nn1 (configuration not stated),EC50,[2],13.2 µM (active)
same,EC50,[3],18 µM (active)
same,EC50,H4,47.3 µM (active)
COCCN1CCN(C(=O)c2cc(COc3cc(C)ccc3C)on2)CC1,IC50,[4],> 47.1 µM (inactive)
same,EC50,[5],> 53 µM (inactive)
CC(C)N1CC(C(=O)Nc2ccc(Br)c(Cl)c2)CC1=O (configuration not stated),IC50,[4],> 47.1 µM (inactive)
same,EC50,[5],> 53 µM (inactive)
Cc1nc2sccn2c(=O)c1S(=O)(=O)NC(C)c1ccccc1 (configuration not stated),EC50,[6],> 112 µM (not active)
same,EC50,[7],> 112 µM (not active)
CS(=O)(=O)Nc1cccc(C2=NN(C(=O)CCCC(=O)O)C(c3cccs3)C2)c1 (configuration not stated),EC50,[1],> 260 µM (inactive)
O=C(OCc1csc(-c2ccccc2)n1)c1cccs1,EC50,[1],> 260 µM (inactive)
Cc1ccc(Cn2c(SCC(=O)NCC3CCCO3)nc3ccsc3c2=O)cc1 (configuration not stated),IC50,[4],> 47.1 µM (inactive)
same,EC50,[5],> 53 µM (inactive)
COc1ccc([N+]2=C3CCc4ccccc4N3CC2(C)O)cc1 (configuration not stated),EC50,[2],> 120 µM (not active)
same,EC50,[3],> 120 µM (not active)
same,EC50,H4,> 120 µM (not active)
CSC1=NC(C)(C)CC2(C)Nc3ccccc3N12 (configuration not stated),EC50,[2],> 120 µM (not active)
same,EC50,[3],> 120 µM (not active)
same,EC50,H4,> 120 µM (not active)
CCC(C)(C)n1nnnc1C(c1cccc(C#N)c1)N1CCN(c2cccc(C)c2C)CC1 (configuration not stated),IC50,[4],> 47.1 µM (inactive)
same,EC50,[5],> 53 µM (inactive)
O=C(CSc1nc(-c2ccccc2)cs1)NCCN1C(=O)CSC1=O,EC50,[2],6.7 µM (active)
same,EC50,[3],31.1 µM (active)
same,EC50,H4,17.9 µM (active)
Cn1c(=O)oc2cc(S(=O)(=O)NC3CCN(Cc4ccccc4)CC3)ccc21,EC50,[6],> 112 µM (not active)
same,EC50,[7],> 112 µM (not active)
O=C(Nc1ccc(C(=O)N2CCCC2)cc1)c1ccccc1F,IC50,[4],> 47.1 µM (inactive)
same,EC50,[5],> 53 µM (inactive)
O=C1/C(=C\c2ccc(Br)o2)Cc2ccccc21,EC50,[1],27.6 µM (active)
CN(C)c1nc(NCc2ccccc2)nc(SCC(=O)Nc2ccccc2Cl)n1,IC50,[4],> 47.1 µM (inactive)
same,EC50,[5],> 53 µM (inactive)
O=C(CCNC(=O)C1CCN(S(=O)(=O)c2ccccc2)CC1)NCc1ccc(Cl)c(Cl)c1,EC50,[6],> 112 µM (not active)
same,EC50,[7],> 112 µM (not active)
C=CCn1c(=O)c2ccccc2n2c(SCC(=O)Nc3sc(C)c(CC)c3C(=O)OCC)nnc12,EC50,[1],> 260 µM (inactive)
COc1ccc(OC)c(NC(=O)c2ccccc2NS(=O)(=O)c2cccc3cccnc23)c1,IC50,[4],< 0.368 µM (active)
same,EC50,[5],> 53 µM (inactive)
Cc1cc(C)n(Cc2cccc(F)c2)c(=O)c1C#N,EC50,[6],> 112 µM (not active)
same,EC50,[7],> 112 µM (not active)
COc1ccc(C2CC(c3ccccc3OC(=O)/C=C/c3ccccc3)=NN2C(C)=O)cc1 (configuration not stated),EC50,[2],14 µM (active)
same,EC50,[3],18.5 µM (active)
same,EC50,H4,36.4 µM (active)
O=C(O)C1C2C=CC(C2)C1C(=O)NCc1ccccn1 (configuration not stated),EC50,[6],> 112 µM (not active)
same,EC50,[7],> 112 µM (not active)
C=CCn1c(SCC(=O)Nc2sc3c(c2C#N)CCC3)nnc1C1COc2ccccc2O1 (configuration not stated),EC50,[6],39.7 µM (active)
same,EC50,[7],> 112 µM (not active)
CCOc1ccc(C(=O)Nc2nnc(S(=O)(=O)N(C)Cc3ccco3)s2)cc1,EC50,[2],15.1 µM (active)
same,EC50,[3],0.162 µM (inconclusive)
same,EC50,H4,6.04 µM (active)
CCOC(=O)COc1cccc2c(=O)n(CC(=O)NCCc3ccccc3)ccc12,EC50,[2],> 120 µM (not active)
same,EC50,[3],> 120 µM (not active)
same,EC50,H4,19.5 µM (active)
NC(=O)COC(=O)c1cccc(S(=O)(=O)N2CCCCC2)c1,IC50,[4],> 47.1 µM (inactive)
same,EC50,[5],> 53 µM (inactive)
Cc1ccsc1/C=N\NC(=O)CCc1c(C)n[nH]c1C,IC50,[4],> 47.1 µM (inactive)
same,EC50,[5],> 53 µM (inactive)
COc1ccc(-c2[nH]ncc2/C=N/NC(=O)c2ccc(Br)cc2)c(OC)c1,EC50,[6],> 112 µM (not active)
same,EC50,[7],16.1 µM (active)
N#Cc1ccc(/C=N/NC(=O)CCc2ccc(S(=O)(=O)N3CCOCC3)cc2)cc1,EC50,[6],> 112 µM (not active)
same,EC50,[7],> 112 µM (not active)
O=C(O)c1ccc(/C=N/N2CCN(c3ccccc3)CC2)cc1,EC50,[2],0.687 µM (active)
same,EC50,[3],19.6 µM (active)
same,EC50,H4,> 120 µM (not active)
